The target of experiment [1] is human TREX2 (residues M44-A279) (Homo sapiens (Human), UniProt Q9BQ50). Put plainly: TREX2 Biochemical Assay (fluorescence assay measuring degradation of dsDNA substrate). The note with it: 2.5 nM TREX2, 60 nM dsDNA substrate, 25 minutes at room temperature. The procedure: Degradation of the dsDNA liberates free fluorophore to produce a fluorescent signal. Specifically, 7.5 μL of N-terminally His-Tev tagged human TREX2 (residues M44-A279, expressed in E. coli and purified in house) in reaction buffer (50 mM Tris (pH 7.4), 150 mM NaCl, 2 mM DTT, 0.1 mg/mL BSA, 0.01% (v/v) Tween-20 and 100 mM MgCl2) was added to a 384-well Black ProxiPlate Plus (Perkin Elmer) which already contained compound (150 nL) at varying concentrations as a 10 point dose-response in DMSO. To this was added 7.5 μL of dsDNA substrate (Strand A: 5′ TEX615/GCT AGG CAG 3′; Strand B: 5′ CTG CCT AGC/IAbRQSp (IDT)) in reaction buffer. Final concentrations were 2.5 nM TREX2, 60 nM dsDNA substrate in reaction buffer with 1.0% DMSO (v/v). After 25 minutes at room temperature, reactions were quenched by the addition of 5 μL of stop buffer (same as reaction buffer plus 200 mM EDTA). Final concentrations in the quenched reaction mixture were […] TREX2, 45 nM DNA and 50 mM EDTA in a volume of 20 μL. After a 5-minute incubation at room temperature, plates were read in a laser sourced Envision (Perkin-Elmer), measuring fluorescence at 615 nm following excitation w/570 nm light. IC50 values were calculated by comparing the measured fluorescence at 615 nm ratio relative to control wells pre-quenched w/stop buffer (100% inhibition) and no inhibitor (0% inhibition) controls as using non-linear least square four parameter fits and either Genedata or GraphPad Prism (GraphPad Software, Inc.).

In experiment [2] the target is full length human TREX1 (Homo sapiens (Human), UniProt Q9NSU2). Put plainly: TREX1 Biochemical Assay (fluorescence assay measuring degradation of dsDNA substrate). The note with it: 150 pM TREX1, 60 nM dsDNA substrate, 25 minutes at room temperature. The procedure:
Degradation of the dsDNA liberates free fluorophore to produce a fluorescent signal. Specifically, 7.5 μL of N-terminally His-Tev tagged full length human TREX1 (expressed in E. coli and purified in house) in reaction buffer (50 mM Tris (pH 7.4), 150 mM NaCl, 2 mM DTT, 0.1 mg/mL BSA, 0.01% (v/v) Tween-20 and 100 mM MgCl2 were added to a 384-well Black ProxiPlate Plus (Perkin Elmer) which already contained compound (150 nL) at varying concentrations as a 10 point dose-response in DMSO. To this was added 7.5 μL of dsDNA substrate (Strand A: 5′ TEX615/GCT AGG CAG 3′; Strand B: 5′ CTG CCT AGC/IAbRQSp (Integrated DNA Technologies)) in reaction buffer. Final concentrations were 150 pM TREX1, 60 nM dsDNA substrate in reaction buffer with 1.0% DMSO (v/v). After 25 minutes at room temperature, reactions were quenched by the addition of 5 μL of stop buffer (same as reaction buffer plus 200 mM EDTA). Final concentrations in the quenched reaction were 112.5 pM TREX1, 45 nM DNA and 50 mM EDTA in a volume of 20 μL. After a 5-minute incubation at room temperature, plates were read in a laser sourced Envision (Perkin-Elmer), measuring fluorescence at 615 nm following excitation w/570 nm light. IC50 values were calculated by comparing the measured fluorescence at 615 nm ratio relative to control wells pre-quenched w/stop buffer (100% inhibition) and no inhibitor (0% inhibition) controls as using non-linear least square four parameter fits and either Genedata or GraphPad Prism (GraphPad Software, Inc.).

The structures appear in SMILES notation.

Sequence of human TREX2 (residues M44-A279) (Q9BQ50 whole entry, the tested form may be a part): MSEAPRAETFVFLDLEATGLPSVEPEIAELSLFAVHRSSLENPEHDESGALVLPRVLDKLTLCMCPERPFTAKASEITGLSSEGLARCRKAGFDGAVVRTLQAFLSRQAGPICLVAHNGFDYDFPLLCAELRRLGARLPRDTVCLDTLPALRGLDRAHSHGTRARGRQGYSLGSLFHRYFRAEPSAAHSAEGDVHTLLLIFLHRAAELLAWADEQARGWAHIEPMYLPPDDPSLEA
Sequence of full length human TREX1 (Q9NSU2 whole entry): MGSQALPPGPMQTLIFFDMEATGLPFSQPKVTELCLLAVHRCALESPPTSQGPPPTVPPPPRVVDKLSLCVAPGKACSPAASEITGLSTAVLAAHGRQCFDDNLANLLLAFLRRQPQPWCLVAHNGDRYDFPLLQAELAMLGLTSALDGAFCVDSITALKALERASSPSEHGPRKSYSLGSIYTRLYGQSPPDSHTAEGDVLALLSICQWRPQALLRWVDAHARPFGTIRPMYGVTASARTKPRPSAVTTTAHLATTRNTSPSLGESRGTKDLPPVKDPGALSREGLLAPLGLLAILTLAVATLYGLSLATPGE

`Cc1cc(Br)cc(-c2nc(C(=O)Nc3cnoc3)c(O)c(=O)n2C)c1` [Example 1, 2-(3-bromo-5-methylphenyl)-5-hydroxy-N-(isoxazol-4-yl)-1-methyl-6-oxo-1,6-dihydropyrimidine-4-carboxamide]: the concentration for half-maximal inhibition (IC50) (commonly the concentration at which inhibition is half-maximal) was 1000 to 10000 nM in experiment [1] and less than 100 nM in experiment [2].

Take `Cn1c(C2CCC2)nc(C(=O)Nc2cnoc2)c(O)c1=O` [Example 2, 2-cyclobutyl-5-hydroxy-N-(isoxazol-4-yl)-1-methyl-6-oxo-1,6-dihydropyrimidine-4-carboxamide]: the half-maximal inhibitory concentration (IC50) in experiment [1] fell in the range of 10000 to 100000 nM; in experiment [2] it was 100 to 1000 nM.

Consider `Cn1c(C2CC2)nc(C(=O)Nc2cnoc2)c(O)c1=O` [Example 3, 2-cyclopropyl-5-hydroxy-N-(isoxazol-4-yl)-1-methyl-6-oxo-1,6-dihydropyrimidine-4-carboxamide], for which the IC50 was 10000 to 100000 nM in experiment [1] and 100 to 1000 nM in experiment [2].

Consider `Cc1ccc(Br)cc1-c1nc(C(=O)Nc2cnoc2)c(O)c(=O)n1C` [Example 4, 2-(5-bromo-2-methylphenyl)-5-hydroxy-N-(isoxazol-4-yl)-1-methyl-6-oxo-1,6-dihydropyrimidine-4-carboxamide], for which the IC50 in experiment [1] fell in the range of 1000 to 10000 nM; in experiment [2] it was 100 to 1000 nM.

Take `Cc1c(Br)cccc1-c1nc(C(=O)Nc2cnoc2)c(O)c(=O)n1C` [Example 5, 2-(3-bromo-2-methylphenyl)-5-hydroxy-N-(isoxazol-4-yl)-1-methyl-6-oxo-1,6-dihydropyrimidine-4-carboxamide]: the figures for the IC50 in experiment [1] and in experiment [2] were 1000 to 10000 nM and less than 100 nM, respectively.

In the case of `Cn1c(Cc2ccccc2)nc(C(=O)Nc2cnoc2)c(O)c1=O` [Example 6, 2-benzyl-5-hydroxy-N-(isoxazol-4-yl)-1-methyl-6-oxo-1,6-dihydropyrimidine-4-carboxamide], the IC50 is 10000 to 100000 nM in experiment [1] and 100 to 1000 nM in experiment [2].

In the case of `Cn1c(C2(NC(=O)OCc3ccccc3)CC2)nc(C(=O)Nc2cnoc2)c(O)c1=O` [Example 7, benzyl (1-(5-hydroxy-4-(isoxazol-4-ylcarbamoyl)-1-methyl-6-oxo-1,6-dihydropyrimidin-2-yl)cyclopropyl)carbamate], the IC50 lay in the range of 10000 to 100000 nM in experiment [1] and 100 to 1000 nM in experiment [2].

As to `Cn1c(-c2ccccc2)nc(C(=O)Nc2cnoc2)c(O)c1=O` [Example 8, 5-hydroxy-N-(isoxazol-4-yl)-1-methyl-6-oxo-2-phenyl-1,6-dihydropyrimidine-4-carboxamide], the values for the IC50 in experiment [1] and in experiment [2] were 10000 to 100000 nM and 100 to 1000 nM, respectively.

Regarding `Cn1c(-c2ccccc2Br)nc(C(=O)Nc2cnoc2)c(O)c1=O` [Example 9, 2-(2-bromophenyl)-5-hydroxy-N-(isoxazol-4-yl)-1-methyl-6-oxo-1,6-dihydropyrimidine-4-carboxamide], the values for the IC50 in experiment [1] and in experiment [2] were 10000 to 100000 nM and 100 to 1000 nM, respectively.

Regarding `Cn1c(-c2cccc(Br)c2)nc(C(=O)Nc2cnoc2)c(O)c1=O` [Example 10, 2-(3-bromophenyl)-5-hydroxy-N-(isoxazol-4-yl)-1-methyl-6-oxo-1,6-dihydropyrimidine-4-carboxamide], the IC50 in experiment [1] was 1000 to 10000 nM; in experiment [2], less than 100 nM.

In the case of `Cn1c(-c2ccc(Br)cc2)nc(C(=O)Nc2cnoc2)c(O)c1=O` [Example 11, 2-(4-bromophenyl)-5-hydroxy-N-(isoxazol-4-yl)-1-methyl-6-oxo-1,6-dihydropyrimidine-4-carboxamide], the IC50 was in the range of 10000 to 100000 nM in experiment [1] and 100 to 1000 nM in experiment [2].

Take `Cn1c(C2CCN(C(=O)OC(C)(C)C)CC2)nc(C(=O)Nc2cnoc2)c(O)c1=O` [Example 12, tert-butyl 4-(5-hydroxy-4-(isoxazol-4-ylcarbamoyl)-1-methyl-6-oxo-1,6-dihydropyrimidin-2-yl)piperidine-1-carboxylate]: the IC50 in experiment [1] was 10000 to 100000 nM; in experiment [2] it was 1000 to 10000 nM.

For `Cn1c(C2CCCN(C(=O)OC(C)(C)C)C2)nc(C(=O)Nc2cnoc2)c(O)c1=O` (stereo not shown) [Example 13, tert-butyl 3-(5-hydroxy-4-(isoxazol-4-ylcarbamoyl)-1-methyl-6-oxo-1,6-dihydropyrimidin-2-yl)piperidine-1-carboxylate], the IC50 fell in the range of 10000 to 100000 nM in experiment [1] and 100 to 1000 nM in experiment [2].

In the case of `Cn1c(C2CCCCN2C(=O)OC(C)(C)C)nc(C(=O)Nc2cnoc2)c(O)c1=O` (stereo not shown) [Example 14, tert-butyl 2-(5-hydroxy-4-(isoxazol-4-ylcarbamoyl)-1-methyl-6-oxo-1,6-dihydropyrimidin-2-yl)piperidine-1-carboxylate], the IC50 lay in the range of 1000 to 10000 nM in experiment [1] and 100 to 1000 nM in experiment [2].

On to `Cn1c(-c2cccc(Br)c2OCCO)nc(C(=O)Nc2cnoc2)c(O)c1=O` [Example 15, 2-(3-bromo-2-(2-hydroxyethoxy)phenyl)-5-hydroxy-N-(isoxazol-4-yl)-1-methyl-6-oxo-1,6-dihydropyrimidine-4-carboxamide], for which the IC50 in experiment [1] is less than 1000 nM; in experiment [2], less than 100 nM.

As for `CC(C)(C)OC(=O)N1CCCC(c2nc(C(=O)Nc3cnoc3)c(O)c(=O)[nH]2)C1` (stereo not shown) [Example 16, tert-butyl 3-(5-hydroxy-4-(isoxazol-4-ylcarbamoyl)-6-oxo-1,6-dihydropyrimidin-2-yl)piperidine-1-carboxylate], the IC50 in experiment [1] lay within 10000 to 100000 nM; in experiment [2], 100 to 1000 nM.

For the compound `Cn1c(CC2CCN(C(=O)OC(C)(C)C)CC2)nc(C(=O)Nc2cnoc2)c(O)c1=O` [Example 17, tert-butyl 4-((5-hydroxy-4-(isoxazol-4-ylcarbamoyl)-1-methyl-6-oxo-1,6-dihydropyrimidin-2-yl)methyl)piperidine-1-carboxylate], the figures for the IC50 in experiment [1] and in experiment [2] were 10000 to 100000 nM and 1000 to 10000 nM, respectively.

For the compound `Cn1c(CC2CCCN(C(=O)OC(C)(C)C)C2)nc(C(=O)Nc2cnoc2)c(O)c1=O` (stereo not shown) [Example 18, tert-butyl 3-((5-hydroxy-4-(isoxazol-4-ylcarbamoyl)-1-methyl-6-oxo-1,6-dihydropyrimidin-2-yl)methyl)piperidine-1-carboxylate], the IC50 was in the range of 10000 to 100000 nM in experiment [1] and 100 to 1000 nM in experiment [2].

As to `Cn1c(C2CN(C(=O)OC(C)(C)C)C2)nc(C(=O)Nc2cnoc2)c(O)c1=O` [Example 19, tert-butyl 3-(5-hydroxy-4-(isoxazol-4-ylcarbamoyl)-1-methyl-6-oxo-1,6-dihydropyrimidin-2-yl)azetidine-1-carboxylate], the IC50 in experiment [1] was greater than 100000 nM; in experiment [2], 1000 to 10000 nM.

With `Cn1c(C2(c3ccccc3)CC2)nc(C(=O)Nc2cnoc2)c(O)c1=O` [Example 20, 5-hydroxy-N-(isoxazol-4-yl)-1-methyl-6-oxo-2-(1-phenylcyclopropyl)-1,6-dihydropyrimidine-4-carboxamide], the IC50 in experiment [1] is 10000 to 100000 nM; in experiment [2], 100 to 1000 nM.

Consider `Cn1c(-c2ccncc2)nc(C(=O)Nc2cnoc2)c(O)c1=O` [Example 21, 5-hydroxy-N-(isoxazol-4-yl)-1-methyl-6-oxo-2-(pyridin-4-yl)-1,6-dihydropyrimidine-4-carboxamide], for which the IC50 in experiment [1] was greater than 100000 nM; in experiment [2], 1000 to 10000 nM.

Regarding `Cn1c(C2CCN2C(=O)OC(C)(C)C)nc(C(=O)Nc2cnoc2)c(O)c1=O` (stereo not shown) [Example 22, tert-butyl 2-(5-hydroxy-4-(isoxazol-4-ylcarbamoyl)-1-methyl-6-oxo-1,6-dihydropyrimidin-2-yl)azetidine-1-carboxylate], the IC50 was 10000 to 100000 nM in experiment [1] and 1000 to 10000 nM in experiment [2].

With `Cn1c(C(NC(=O)OCc2ccccc2)c2ccccc2)nc(C(=O)Nc2cnoc2)c(O)c1=O` (stereo not shown) [Example 23, benzyl ((5-hydroxy-4-(isoxazol-4-ylcarbamoyl)-1-methyl-6-oxo-1,6-dihydropyrimidin-2-yl)(phenyl)methyl)carbamate], the IC50 was 1000 to 10000 nM in experiment [1] and 100 to 1000 nM in experiment [2].

These data come from patent US12172990B2 (Constellation Pharmaceuticals, Inc., priority 2018, dated 2024).
